Read-outs that look alike come from different tables or passages of the source. Marks after values point to notes of the source that are not given here.
Tests used:
[1] = test system: isolated rat liver mitochondria; experiment: Mitochondrial oxygen consumption (glutamate/malate or succinate driven, state 4 and state 3); assay type: biochemical; details: for Glutamate/malate driven respiration State 3 / Glutamate/malate driven respiration State 4 / Succinate-driven respiration State 3 / Succinate-driven respiration State 4: oxygen consumption, DMSO-treated = 1; as to State 3 respiration driven by succinate at 10XCmax: key: 0 indicates that the drug had no effects (negative); as to State 3 respiration driven by succinate at 1XCmax: key: 0 indicates that the drug had no effects (negative)
Method in brief: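 Rat liver mitochondria (1 mg/ml protein) exposed 5 min to kinase inhibitors in 0.1% DMSO, then O2 consumption measured by Clark-type electrode with glutamate/malate or succinate (state 4), ADP added after 3 min (state 3). Rates normalized to 0.1% DMSO controls set to 1.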

[2] = test system: RCC I; experiment: RCC I activity in submitochondrial particles; assay type: biochemical, rat; set-up: key to RCC I at 10XCmax / RCC I at 100XCmax / RCC I at 50XCmax / RCC I at 30XCmax / RCC I at 20XCmax: activity relative to DMSO-treated controls (control set as 1 = 100%); details: 10XCmax; DMSO treated samples set as 1
Method in brief: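 Activity relative to DMSO (set as 1) after 15-min exposure of submitochondrial particles (1 mg/ml) to compound. RCC I is defined as rotenone-sensitive activity and RCC II is followed at 600 nm over 6 min.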

[3] = biological target: T1, RCC II (Rattus norvegicus, UniProt P21913+Q641Z9+Q6PCT8+Q920L2); experiment: RCC II activity in submitochondrial particles; assay type: biochemical; set-up: key: activity relative to DMSO-treated controls (control set as 1 = 100%); details: DMSO treated samples set as 1
T1 construct: Submitochondrial particles were prepared by subjecting the intact mitochondria to three successive freeze–thaw cycles; from tissue; host or cells: rat liver mitochondria, used as submitochondrial particles
Method in brief: (§1)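 First, submitochondrial particles (1 mg/ml) are incubated with inhibitor for 15 min. Next, complex activities are followed spectrophotometrically, with RCC I taken as the difference between buffers lacking and containing rotenone. Finally, activities are expressed relative to DMSO controls set at 1.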

[4] = test system: RCC IV; experiment: RCC IV activity in submitochondrial particles; assay type: biochemical, rat; set-up: key to RCC IV at 50XCmax / RCC IV at 100XCmax: activity relative to DMSO-treated controls (control set as 1 = 100%); details: 50XCmax; DMSO treated samples set as 1; in %
Method in brief: as §1

[5] = test system: RCC V; experiment: RCC V activity in submitochondrial particles; assay type: biochemical, rat; details: DMSO treated samples set as 1; as to RCC V at 5XCmax: key: 0 indicates that the drug had no effects (negative)
Method in brief: as §1

[6] = test system: isolated rat liver mitochondria; experiment: Mitochondrial inner membrane potential (MMP), Rhodamine 123; assay type: biochemical
From the text: Fig. 3 KI effects on mitochondrial inner membrane potential (MMP). […] In a, c, data are means and standard derivations from three separate experiments. *p < 0.05 as compared to DMSO-treated samples at the end of experiments. In b, data are means of two independent experiments

[7] = test system: isolated rat liver mitochondria; experiment: Mitochondrial swelling (absorbance at 535 nm); assay type: biochemical; as to Swelling 5XCmax: key: 0 indicates that the drug had no effects (negative)
[8] = test system: isolated rat liver mitochondria; details: positive control alamethicin treated samples
[9] = cited from earlier work
[10] = cited from earlier work; remark: listed apart in the source
[11] = 1XCmax, DMSO treated samples set as 1
[12] = 2.5XCmax, DMSO treated samples set as 1
[13] = 5XCmax, DMSO treated samples set as 1
[14] = 10XCmax, DMSO treated samples set as 1
[15] = 20XCmax, DMSO treated samples set as 1
[16] = 30XCmax, DMSO treated samples set as 1
[17] = 50XCmax, DMSO treated samples set as 1
[18] = 100XCmax, DMSO treated samples set as 1
[19] = 1XCmax, difference in signal between KI and DMSO treated samples at the end of experiments
[20] = 2.5XCmax, difference in signal between KI and DMSO treated samples at the end of experiments
[21] = 5XCmax, difference in signal between KI and DMSO treated samples at the end of experiments
[22] = 10XCmax, difference in signal between KI and DMSO treated samples at the end of experiments
[23] = 20XCmax, difference in signal between KI and DMSO treated samples at the end of experiments
[24] = 30XCmax, difference in signal between KI and DMSO treated samples at the end of experiments
[25] = 50XCmax, difference in signal between KI and DMSO treated samples at the end of experiments
[26] = 100XCmax, difference in signal between KI and DMSO treated samples at the end of experiments

T1 sequence (Q920L2 35-656): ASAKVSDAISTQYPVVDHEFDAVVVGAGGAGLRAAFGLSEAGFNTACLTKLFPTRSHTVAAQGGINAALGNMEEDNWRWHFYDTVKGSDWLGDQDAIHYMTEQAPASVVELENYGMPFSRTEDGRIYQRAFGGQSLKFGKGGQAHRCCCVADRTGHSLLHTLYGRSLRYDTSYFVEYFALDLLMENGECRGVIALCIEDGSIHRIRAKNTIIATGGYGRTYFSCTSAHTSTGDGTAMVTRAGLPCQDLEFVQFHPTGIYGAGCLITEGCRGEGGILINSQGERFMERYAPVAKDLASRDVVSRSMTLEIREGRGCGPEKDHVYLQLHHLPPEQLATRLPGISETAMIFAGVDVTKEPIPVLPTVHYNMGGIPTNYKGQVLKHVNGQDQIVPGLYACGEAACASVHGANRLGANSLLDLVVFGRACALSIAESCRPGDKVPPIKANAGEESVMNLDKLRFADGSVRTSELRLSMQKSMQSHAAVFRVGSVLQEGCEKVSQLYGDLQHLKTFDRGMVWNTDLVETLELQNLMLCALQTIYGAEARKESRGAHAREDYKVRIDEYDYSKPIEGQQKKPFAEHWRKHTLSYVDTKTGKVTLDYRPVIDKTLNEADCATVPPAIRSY
T1 sequence (P21913 31-282): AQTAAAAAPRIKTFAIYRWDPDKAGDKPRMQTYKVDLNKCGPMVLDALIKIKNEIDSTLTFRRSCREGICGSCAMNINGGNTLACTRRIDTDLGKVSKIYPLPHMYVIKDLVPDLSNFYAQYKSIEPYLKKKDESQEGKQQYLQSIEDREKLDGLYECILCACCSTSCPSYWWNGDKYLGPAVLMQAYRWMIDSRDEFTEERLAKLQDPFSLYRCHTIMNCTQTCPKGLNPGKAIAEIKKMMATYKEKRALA
T1 sequence (Q641Z9 1-169): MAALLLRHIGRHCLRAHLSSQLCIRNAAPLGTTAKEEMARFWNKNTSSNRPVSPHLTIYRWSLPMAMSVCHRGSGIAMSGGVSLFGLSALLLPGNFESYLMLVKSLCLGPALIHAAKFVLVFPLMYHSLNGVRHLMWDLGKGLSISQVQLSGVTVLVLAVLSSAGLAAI
T1 sequence (Q6PCT8 57-159): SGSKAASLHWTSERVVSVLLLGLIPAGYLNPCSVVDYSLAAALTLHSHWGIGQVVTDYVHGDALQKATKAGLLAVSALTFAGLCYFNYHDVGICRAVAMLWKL

CC(C)(C)c1nc(-c2cccc(NS(=O)(=O)c3c(F)cccc3F)c2F)c(-c2ccnc(N)n2)s1 [Dabrafenib]
State 3 respiration driven by glutamate/malate at 1XCmax [1, 11]: 0 | State 3 respiration driven by succinate at 1XCmax [1, 11]: 0 | State 4 respiration driven by glutamate/malate at 1XCmax [1, 11]: 0 | State 4 respiration driven by succinate at 1XCmax [1, 11]: 0 | State 3 respiration driven by glutamate/malate at 2.5XCmax [1, 12]: 0 | State 3 respiration driven by succinate at 2.5XCmax [1, 12]: 0 | State 4 respiration driven by glutamate/malate at 2.5XCmax [1, 12]: 0 | State 4 respiration driven by succinate at 2.5XCmax [1, 12]: 0 | State 3 respiration driven by glutamate/malate at 5XCmax [1, 13]: 0 | State 3 respiration driven by succinate at 5XCmax [1, 13]: 0 | State 4 respiration driven by glutamate/malate at 5XCmax [1, 13]: 0 | State 4 respiration driven by succinate at 5XCmax [1, 13]: 0 | Glutamate/malate driven respiration State 3 ([1]; 10-fold Cmax): 0.94 ± 0.04 | Glutamate/malate driven respiration State 4 ([1]; 10-fold Cmax): 1.35 ± 0.19 | Succinate-driven respiration State 3 ([1]; 10-fold Cmax): 0.97 ± 0.07 | Succinate-driven respiration State 4 ([1]; 10-fold Cmax): 1.38 ± 0.13 | State 3 respiration driven by glutamate/malate at 10XCmax [1, 14]: 0 | State 3 respiration driven by succinate at 10XCmax [1, 14]: 0 | State 4 respiration driven by glutamate/malate at 10XCmax [1, 14]: 1.35±0.19 | State 4 respiration driven by succinate at 10XCmax [1, 14]: 1.38±0.13 | Glutamate/malate driven respiration State 3 ([1]; 20-fold Cmax): 0.90 ± 0.05 | Glutamate/malate driven respiration State 4 ([1]; 20-fold Cmax): 1.59 ± 0.05 | Succinate-driven respiration State 3 ([1]; 20-fold Cmax): 0.65 ± 0.01 | Succinate-driven respiration State 4 ([1]; 20-fold Cmax): 1.31 ± 0.02 | State 3 respiration driven by glutamate/malate at 20XCmax [1, 15]: 0 | State 3 respiration driven by succinate at 20XCmax [1, 15]: 0.65±0.01 | State 4 respiration driven by glutamate/malate at 20XCmax [1, 15]: 1.59±0.05 | State 4 respiration driven by succinate at 20XCmax [1, 15]: 1.31±0.02 | Glutamate/malate driven respiration State 3 ([1]; 30-fold Cmax): 0.71 ± 0.03 | Glutamate/malate driven respiration State 4 ([1]; 30-fold Cmax): 2.22 ± 0.24 | Succinate-driven respiration State 3 ([1]; 30-fold Cmax): 0.59 ± 0.07 | Succinate-driven respiration State 4 ([1]; 30-fold Cmax): 1.52 ± 0.12 | State 3 respiration driven by glutamate/malate at 30XCmax [1, 16]: 0.71±0.03 | State 3 respiration driven by succinate at 30XCmax [1, 16]: 0.59±0.07 | State 4 respiration driven by glutamate/malate at 30XCmax [1, 16]: 2.22±0.24 | State 4 respiration driven by succinate at 30XCmax [1, 16]: 1.52±0.12 | Glutamate/malate driven respiration State 3 ([1]; 50-fold Cmax): 0.56 ± 0.05 | Glutamate/malate driven respiration State 4 ([1]; 50-fold Cmax): 2.42 ± 0.21 | Succinate-driven respiration State 3 ([1]; 50-fold Cmax): 0.44 ± 0.10 | Succinate-driven respiration State 4 ([1]; 50-fold Cmax): 1.69 ± 0.30 | State 3 respiration driven by glutamate/malate at 50XCmax [1, 17]: 0.56±0.05 | State 3 respiration driven by succinate at 50XCmax [1, 17]: 0.44±0.10 | State 4 respiration driven by glutamate/malate at 50XCmax [1, 17]: 2.42±0.21 | State 4 respiration driven by succinate at 50XCmax [1, 17]: 1.69±0.30 | Glutamate/malate driven respiration State 3 ([1]; 100-fold Cmax): 0.41 ± 0.05 | Glutamate/malate driven respiration State 4 ([1]; 100-fold Cmax): 2.49 ± 0.32 | Succinate-driven respiration State 3 ([1]; 100-fold Cmax): 0.28 ± 0.01 | Succinate-driven respiration State 4 ([1]; 100-fold Cmax): 1.03 ± 0.09 | State 3 respiration driven by glutamate/malate at 100XCmax [1, 18]: 0.41±0.05 | State 3 respiration driven by succinate at 100XCmax [1, 18]: 0.28±0.01 | State 4 respiration driven by glutamate/malate at 100XCmax [1, 18]: 2.49±0.32 | State 4 respiration driven by succinate at 100XCmax [1, 18]: 0 | effect on state 4 respiration ([1]; highest tested concentrations): significant increases | lowest concentration significantly affecting mitochondrial oxygen consumption ([1]; tested at 1 to 100-fold Cmax): tenfold | RCC I at 10XCmax [2]: 0 | RCC II at 1.0XCmax ([3]; 1.0XCmax): 0 | RCC II at 2.5XCmax ([3]; 2.5XCmax): 0 | RCC II at 5XCmax ([3]; 5XCmax): 0 | RCC II at 10XCmax ([3]; 10XCmax): 0 | RCC II at 20XCmax ([3]; 20XCmax): 0 | RCC II at 30XCmax ([3]; 30XCmax): 0 | RCC II at 50XCmax ([3]; 50XCmax): 0 | RCC II at 100XCmax ([3]; 100XCmax): 0 | RCC IV at 50XCmax [4]: 0 | RCC V at 5XCmax ([5]; 5XCmax): 0 | RCC V at 50XCmax ([5]; 50XCmax): 0 | lowest concentration decreasing MMP [6]: 20 fold Cmax | MMP measured by Rhodamine 123 at 1XCmax [6, 19]: 0 | MMP measured by Rhodamine 123 at 2.5XCmax [6, 20]: 0 | MMP measured by Rhodamine 123 at 5XCmax [6, 21]: 0 | MMP measured by Rhodamine 123 at 10XCmax [6, 22]: 0 | MMP measured by Rhodamine 123 at 20XCmax [6, 23]: 660±95* | MMP measured by Rhodamine 123 at 30XCmax [6, 24]: 773±60* | MMP measured by Rhodamine 123 at 50XCmax [6, 25]: 953±54* | MMP measured by Rhodamine 123 at 100XCmax [6, 26]: 926±89* | effect on MMP ([6]; up to 100-fold Cmax or highest testable concentration): decrease in MMP | lowest concentration causing mitochondrial swelling [7]: tenfold | Swelling 1XCmax [7, 19]: 0 | Swelling 2.5XCmax [7, 20]: 0 | Swelling 5XCmax [7, 21]: 0 | Swelling 10XCmax [7, 22]: 0.20±0.02 | Swelling 20XCmax [7, 23]: 0.48±0.05 | Swelling 30XCmax [7, 24]: 0.46±0.05 | Swelling 50XCmax [7, 25]: 0.44±0.04 | Swelling 100XCmax [7, 26]: 0.39±0.04 | effect on mitochondrial swelling ([7]; up to 100-fold Cmax or highest testable concentration, 25 µM calcium chloride): significant mitochondrial swelling | Cytochrome c release 1XCmax ([8]; 1XCmax): 0 | Cytochrome c release 2.5XCmax ([8]; 2.5XCmax): 0 | Cytochrome c release 5XCmax ([8]; 5XCmax): 19.44±2.10 percentage of the positive control group | Cytochrome c release 10XCmax ([8]; 10XCmax): 15.99±0.85 percentage of the positive control group | Cytochrome c release 20XCmax ([8]; 20XCmax): 17.52±7.37 percentage of the positive control group | Cytochrome c release 30XCmax ([8]; 30XCmax): 17.54±2.16 percentage of the positive control group | Cytochrome c release 50XCmax ([8]; 50XCmax): 21.81±7.02 percentage of the positive control group | Cytochrome c release 100XCmax ([8]; 100XCmax): 15.21±0.35 percentage of the positive control group | Cmax ([9]; human therapeutic Cmax at FDA recommended dosages, ref product labeling and drug approval packages at the official FDA website): 2.84 µM | Cmax (ng or µg/ml) ([9]; human therapeutic maximal blood concentration, ref product labeling): 1,478 ng/ml | Cmax ([9]; read-out: Cmax at µM, human therapeutic maximal blood concentration, ref product labeling): 2.84 µM | DILI potential (based on labeling) ([10]; 1 DILI positive, 0 negative according to labeling, ref product labeling): 0 | DILI potential (based on labeling) ([10]; ref FDA product labeling): 0
